The record followed here is patent US20090311217A1, “3-SUBSTITUTED-1H-INDOLE COMPOUNDS, THEIR USE AS MTOR KINASE AND PI3 KINASE INHIBITORS, AND THEIR SYNTHESES” (priority 2008, published 2009).

For one experiment, the target named is PI3K-alpha (Homo sapiens, UniProt P42336). In words: PI3K-alpha fluorescence polarization assay. To be noted: read-out: PI3Kα Avg. IC50. Type of experiment: biochemical. (In fluorescence polarisation assays a small probe gives low polarisation when free and higher when bound to something large.)
PI3K-alpha, sequence (P42336 whole entry, species assumed, the tested form may be a part): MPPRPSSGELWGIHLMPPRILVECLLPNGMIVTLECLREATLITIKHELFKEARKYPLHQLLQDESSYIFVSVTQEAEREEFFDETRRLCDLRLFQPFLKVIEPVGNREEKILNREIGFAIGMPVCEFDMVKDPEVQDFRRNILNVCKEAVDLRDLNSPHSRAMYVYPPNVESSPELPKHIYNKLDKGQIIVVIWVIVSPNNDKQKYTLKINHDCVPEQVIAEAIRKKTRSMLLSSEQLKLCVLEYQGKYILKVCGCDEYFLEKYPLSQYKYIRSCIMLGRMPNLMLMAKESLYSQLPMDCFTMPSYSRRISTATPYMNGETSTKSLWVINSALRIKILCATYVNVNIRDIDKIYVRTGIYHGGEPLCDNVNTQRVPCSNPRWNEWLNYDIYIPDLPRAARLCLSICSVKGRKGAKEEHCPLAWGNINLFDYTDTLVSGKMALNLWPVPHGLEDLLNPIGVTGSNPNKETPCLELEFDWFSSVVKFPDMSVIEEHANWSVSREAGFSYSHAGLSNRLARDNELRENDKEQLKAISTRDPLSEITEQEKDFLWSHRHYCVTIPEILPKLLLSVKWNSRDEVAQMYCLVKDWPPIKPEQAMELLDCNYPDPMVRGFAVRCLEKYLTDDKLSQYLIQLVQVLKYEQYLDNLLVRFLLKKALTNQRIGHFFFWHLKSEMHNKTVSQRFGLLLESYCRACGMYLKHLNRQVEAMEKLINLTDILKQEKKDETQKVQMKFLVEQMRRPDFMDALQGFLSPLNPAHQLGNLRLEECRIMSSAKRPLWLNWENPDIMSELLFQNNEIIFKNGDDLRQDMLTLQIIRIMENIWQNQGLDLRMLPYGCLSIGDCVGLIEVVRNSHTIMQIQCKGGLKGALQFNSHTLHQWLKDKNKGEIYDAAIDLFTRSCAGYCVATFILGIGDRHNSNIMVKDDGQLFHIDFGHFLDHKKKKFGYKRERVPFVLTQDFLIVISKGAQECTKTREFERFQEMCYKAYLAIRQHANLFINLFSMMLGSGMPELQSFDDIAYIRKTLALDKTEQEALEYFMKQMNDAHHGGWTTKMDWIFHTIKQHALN
PI3K-alpha, sequence (P27986 whole entry partner, species assumed, the tested form may be a part): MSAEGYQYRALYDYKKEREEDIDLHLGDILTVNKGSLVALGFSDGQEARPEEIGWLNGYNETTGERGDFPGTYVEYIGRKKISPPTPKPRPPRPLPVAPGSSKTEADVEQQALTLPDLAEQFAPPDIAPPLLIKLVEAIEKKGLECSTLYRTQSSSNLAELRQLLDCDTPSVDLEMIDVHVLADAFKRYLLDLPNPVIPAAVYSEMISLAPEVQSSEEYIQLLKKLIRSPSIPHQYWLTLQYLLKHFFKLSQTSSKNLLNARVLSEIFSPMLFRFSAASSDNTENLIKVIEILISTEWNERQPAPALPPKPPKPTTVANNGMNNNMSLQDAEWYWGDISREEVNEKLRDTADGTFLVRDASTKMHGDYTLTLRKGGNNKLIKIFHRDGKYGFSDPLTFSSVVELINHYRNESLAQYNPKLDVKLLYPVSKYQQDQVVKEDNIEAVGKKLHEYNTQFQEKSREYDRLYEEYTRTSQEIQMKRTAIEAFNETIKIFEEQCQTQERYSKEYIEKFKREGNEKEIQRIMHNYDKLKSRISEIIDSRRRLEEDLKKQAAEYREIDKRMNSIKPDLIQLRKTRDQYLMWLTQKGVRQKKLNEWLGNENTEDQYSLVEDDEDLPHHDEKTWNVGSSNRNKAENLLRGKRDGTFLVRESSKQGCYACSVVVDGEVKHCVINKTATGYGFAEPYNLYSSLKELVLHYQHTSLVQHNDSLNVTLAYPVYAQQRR
A further experiment deals with PI3K-gamma (Homo sapiens, UniProt P48736). As to the kind of experiment: PI3K-gamma fluorescence polarization assay. To be noted: PI3Kγ Avg. IC50. The class given is biochemical. In short, it runs like this: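 Reactions used 5 ng enzyme with 2.5 μM diC8-PI(4,5)P2 and 25 μM ATP in 5 mM HEPES pH 7, 2.5 mM MgCl2, run 1 h at 25° C. After an EDTA quench (10 mM), 100 nM GST-GRP1 PH domain and 5 nM BODIPY-TMR-IP4 were added and fluorescence polarization was read.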
PI3K-gamma, sequence (P48736 whole entry, species assumed, the tested form may be a part): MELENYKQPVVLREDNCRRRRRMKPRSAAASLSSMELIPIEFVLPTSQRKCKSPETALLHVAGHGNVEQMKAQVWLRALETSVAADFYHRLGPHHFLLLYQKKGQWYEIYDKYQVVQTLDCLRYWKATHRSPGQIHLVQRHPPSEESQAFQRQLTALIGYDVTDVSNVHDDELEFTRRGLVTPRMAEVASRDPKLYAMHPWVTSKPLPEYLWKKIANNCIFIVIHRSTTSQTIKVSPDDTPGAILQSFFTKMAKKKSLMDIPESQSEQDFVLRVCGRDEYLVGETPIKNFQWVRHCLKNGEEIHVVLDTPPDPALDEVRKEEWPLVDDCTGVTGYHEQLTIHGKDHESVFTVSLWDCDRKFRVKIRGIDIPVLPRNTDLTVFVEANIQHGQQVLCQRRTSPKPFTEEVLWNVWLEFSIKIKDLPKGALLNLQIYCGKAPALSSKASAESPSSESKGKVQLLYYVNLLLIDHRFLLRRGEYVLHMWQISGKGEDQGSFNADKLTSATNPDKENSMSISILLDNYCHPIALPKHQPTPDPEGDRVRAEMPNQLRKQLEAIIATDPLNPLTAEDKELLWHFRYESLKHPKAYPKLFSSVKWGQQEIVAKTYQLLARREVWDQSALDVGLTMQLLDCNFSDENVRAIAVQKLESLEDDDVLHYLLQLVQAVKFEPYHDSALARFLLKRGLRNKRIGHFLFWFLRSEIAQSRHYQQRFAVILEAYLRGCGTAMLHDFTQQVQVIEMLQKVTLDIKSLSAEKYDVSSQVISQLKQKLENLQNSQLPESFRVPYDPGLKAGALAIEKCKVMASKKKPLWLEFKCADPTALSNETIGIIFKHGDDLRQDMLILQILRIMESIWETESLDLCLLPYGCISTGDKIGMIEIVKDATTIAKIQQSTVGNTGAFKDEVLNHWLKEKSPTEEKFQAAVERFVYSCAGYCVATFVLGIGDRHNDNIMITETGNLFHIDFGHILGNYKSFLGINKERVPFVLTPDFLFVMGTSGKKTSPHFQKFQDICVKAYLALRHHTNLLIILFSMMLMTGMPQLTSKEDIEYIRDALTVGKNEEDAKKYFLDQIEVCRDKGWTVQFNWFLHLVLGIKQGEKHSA

One may read the IC50 as the point on the concentration scale where inhibition reaches its midpoint. As for `CNC(=O)Nc1ccc2c(c1)C(=O)/C(=C/c1c[nH]c3c(CN4CCN(C)CC4)cc(OC)cc13)O2` [Compound 571, 1-[(2Z)-2-({5-methoxy-7-[(4-methylpiperazin-1-yl)methyl]-1H-indol-3-yl}methylene)-3-oxo-2,3-dihydro-1-benzofuran-5-yl]-3-methylurea], the IC50 worked out at 612 nM on PI3K-alpha and 6440 nM against PI3K-gamma.

Take `CNC(=O)Nc1ccc2c(c1)C(=O)/C(=C/c1cn(C)c3c(CCCN4CCN(C)CC4)cc(OC)cc13)O2` [Compound 572, 1-[(2Z)-2-({5-methoxy-1-methyl-7-[3-(4-methylpiperazin-1-yl)propyl]-1H-indol-3-yl}methylene)-3-oxo-2,3-dihydro-1-benzofuran-5-yl]-3-methylurea]: the half-inhibitory concentration (IC50) at PI3K-alpha was 1660 nM; at PI3K-gamma, 2320 nM.

On to `CNC(=O)Nc1ccc2c(c1)C(=O)/C(=C/c1c[nH]c3c(/C=C/CN(C)C)cc(OC)cc13)O2` [Compound 573, 1-[(2Z)-2-({7-[(1E)-3-(dimethylamino)prop-1-en-1-yl]-5-methoxy-1H-indol-3-yl}methylene)-3-oxo-2,3-dihydro-1-benzofuran-5-yl]-3-methylurea], for which the IC50 at PI3K-alpha was 52 nM; against PI3K-gamma it was 1590 nM.

For the compound `COc1ccc2c(c1)c(/C=C1\Oc3ccc(NC(=O)NCCN(C)C)cc3C1=O)cn2CCN1CCN(C)CC1` [Compound 574, 1-[2-(dimethylamino)ethyl]-3-[(2Z)-2-({5-methoxy-1-[2-(4-methylpiperazin-1-yl)ethyl]-1H-indol-3-yl}methylene)-3-oxo-2,3-dihydro-1-benzofuran-5-yl]urea], the values for the concentration for half-maximal inhibition (IC50) on PI3K-alpha and against PI3K-gamma were 97.5 nM and 2990 nM, respectively.

As for `CNC(=O)Nc1ccc2c(c1)C(=O)/C(=C/c1c(-c3ccccc3)n(CCN3CCN(C)CC3)c3ccc(OC)cc13)O2` [Compound 575, 1-[(2Z)-2-({5-methoxy-1-[2-(4-methylpiperazin-1-yl)ethyl]-2-phenyl-1H-indol-3-yl}methylene)-3-oxo-2,3-dihydro-1-benzofuran-5-yl]-3-methylurea], the IC50 at PI3K-alpha turned out to be 1.25 nM; on PI3K-gamma, 206 nM.

With `COc1ccc2c(c1)c(/C=C1\Oc3ccc(NC(=O)NCCN)cc3C1=O)c(-c1ccccc1)n2CCN1CCN(C)CC1` [Compound 576, 1-(2-aminoethyl)-3-[(2Z)-2-({5-methoxy-1-[2-(4-methylpiperazin-1-yl)ethyl]-2-phenyl-1H-indol-3-yl}methylene)-3-oxo-2,3-dihydro-1-benzofuran-5-yl]urea], the IC50 at PI3K-alpha was 0.6 nM; at PI3K-gamma, 27.5 nM.

`COc1ccc2c(c1)c(/C=C1\Oc3ccc(NC(=O)NCCN)cc3C1=O)c(C1CCCC1)n2CCN1CCN(C)CC1` [Compound 577, 1-(2-aminoethyl)-3-[(2Z)-2-({2-cyclopentyl-5-methoxy-1-[2-(4-methylpiperazin-1-yl)ethyl]-1H-indol-3-yl}methylene)-3-oxo-2,3-dihydro-1-benzofuran-5-yl]urea]: the IC50 at PI3K-alpha turned out to be 1.1 nM; on PI3K-gamma, 146 nM.

With `CNC(=O)Nc1ccc2c(c1)C(=O)/C(=C/c1cn(CCCN3CCCCC3)c3ccc(OC)cc13)O2` [Compound 578, 1-[(2Z)-2-{[5-methoxy-1-(3-piperidin-1-ylpropyl)-1H-indol-3-yl]methylene}-3-oxo-2,3-dihydro-1-benzofuran-5-yl]-3-methylurea], the values for the IC50 at PI3K-alpha and at PI3K-gamma were 38 nM and 2180 nM, respectively.

On to `CNC(=O)Nc1ccc2c(c1)C(=O)/C(=C/c1cn(CCCC#N)c3ccc(OC)cc13)O2` [Compound 579, 1-[(2Z)-2-{[1-(3-cyanopropyl)-5-methoxy-1H-indol-3-yl]methylene}-3-oxo-2,3-dihydro-1-benzofuran-5-yl]-3-methylurea], for which the IC50 at PI3K-alpha was 30 nM; against PI3K-gamma it was 128 nM.

For the compound `CNC(=O)Nc1ccc2c(c1)C(=O)/C(=C/c1cn(CCCN3CCOCC3)c3ccc(OC)cc13)O2` [Compound 580, 1-[(2Z)-2-{[5-methoxy-1-(3-morpholin-4-ylpropyl)-1H-indol-3-yl]methylene}-3-oxo-2,3-dihydro-1-benzofuran-5-yl]-3-methylurea], the IC50 at PI3K-alpha worked out at 53 nM; at PI3K-gamma, 1360 nM.

Regarding `CNC(=O)Nc1ccc2c(c1)C(=O)/C(=C/c1c(-c3c(C)noc3C)[nH]c3ccc(OC)cc13)O2` [Compound 581, 1-[(2Z)-2-{[2-(3,5-dimethylisoxazol-4-yl)-5-methoxy-1H-indol-3-yl]methylene}-3-oxo-2,3-dihydro-1-benzofuran-5-yl]-3-methylurea], the IC50 was 2 nM on PI3K-alpha and 26.5 nM against PI3K-gamma.

`COc1cc(/C=C/CN2CCN(C)CC2)c2c(c1)c(/C=C1\Oc3cc(O)ccc3C1=O)cn2C` [Compound 582, (2Z)-6-hydroxy-2-({5-methoxy-1-methyl-7-[(1E)-3-(4-methylpiperazin-1-yl)prop-1-en-1-yl]-1H-indol-3-yl}methylene)-1-benzofuran-3(2H)-one]: the values for the IC50 at PI3K-alpha and against PI3K-gamma were 183 nM and 3570 nM, respectively.

For the compound `CNC(=O)Nc1ccc2c(c1)C(=O)/C(=C/c1c[nH]c3c(CCCN4CCN(C)CC4)cc(OC)cc13)O2` [Compound 583, 1-[(2Z)-2-({5-methoxy-7-[3-(4-methylpiperazin-1-yl)propyl]-1H-indol-3-yl}methylene)-3-oxo-2,3-dihydro-1-benzofuran-5-yl]-3-methylurea], the IC50 at PI3K-alpha came out at 222 nM; against PI3K-gamma, 6490 nM.

Turning to `CNCCNC(=O)Nc1ccc2c(c1)C(=O)/C(=C/c1c(C3CCCCC3)n(CCN3CCN(C)CC3)c3ccc(OC)cc13)O2` [Compound 584, 1-[(2Z)-2-({2-cyclohexyl-5-methoxy-1-[2-(4-methylpiperazin-1-yl)ethyl]-1H-indol-3-yl}methylene)-3-oxo-2,3-dihydro-1-benzofuran-5-yl]-3-[2-(methylamino)ethyl]urea], the IC50 worked out at 1.1 nM on PI3K-alpha and 26 nM at PI3K-gamma.

As to `CNC(=O)Nc1ccc2c(c1)C(=O)/C(=C/c1c(C)n(CCCN3CCOCC3)c3ccc(OC)cc13)O2` [Compound 585, 1-[(2Z)-2-{[5-methoxy-2-methyl-1-(3-morpholin-4-ylpropyl)-1H-indol-3-yl]methylene}-3-oxo-2,3-dihydro-1-benzofuran-5-yl]-3-methylurea], the IC50 on PI3K-alpha worked out at 11 nM; against PI3K-gamma, 138 nM.

As for `CNC(=O)Nc1ccc2c(c1)C(=O)/C(=C/c1c(C)n(CCCN3CCN(C)CC3)c3ccc(OC)cc13)O2` [Compound 586, 1-[(2Z)-2-({5-methoxy-2-methyl-1-[3-(4-methylpiperazin-1-yl)propyl]-1H-indol-3-yl}methylene)-3-oxo-2,3-dihydro-1-benzofuran-5-yl]-3-methylurea], the results for the IC50 on PI3K-alpha and at PI3K-gamma were 3.5 nM and 1010 nM, respectively.

With `CNC(=O)Nc1ccc2c(c1)C(=O)/C(=C/c1c(C)n(CCCN3CCC(O)CC3)c3ccc(OC)cc13)O2` [Compound 587, 1-[(2Z)-2-({1-[3-(4-hydroxypiperidin-1-yl)propyl]-5-methoxy-2-methyl-1H-indol-3-yl}methylene)-3-oxo-2,3-dihydro-1-benzofuran-5-yl]-3-methylurea], the IC50 at PI3K-alpha came out at 4 nM; against PI3K-gamma, 982 nM.

For `CNC(=O)Nc1ccc2c(c1)C(=O)/C(=C/c1c(C)n(CCCN3CCCCC3)c3ccc(OC)cc13)O2` [Compound 588, 1-[(2Z)-2-{[5-methoxy-2-methyl-1-(3-piperidin-1-ylpropyl)-1H-indol-3-yl]methylene}-3-oxo-2,3-dihydro-1-benzofuran-5-yl]-3-methylurea], the IC50 at PI3K-alpha was determined as 3.5 nM; on PI3K-gamma, 830 nM.

On to `CNC(=O)Nc1ccc2c(c1)C(=O)/C(=C/c1c(C)n(CCCN3CCC(O)C3)c3ccc(OC)cc13)O2` (stereo not drawn) [Compound 589, 1-[(2Z)-2-({1-[3-(3-hydroxypyrrolidin-1-yl)propyl]-5-methoxy-2-methyl-1H-indol-3-yl}methylene)-3-oxo-2,3-dihydro-1-benzofuran-5-yl]-3-methylurea], for which the IC50 at PI3K-alpha was found to be 4.5 nM; at PI3K-gamma it was 967 nM.

For the compound `CNC(=O)Nc1ccc2c(c1)C(=O)/C(=C/c1c(-c3ccncc3)n(CCN3CCN(C)CC3)c3ccc(OC)cc13)O2` [Compound 590, 1-[(2Z)-2-({5-methoxy-1-[2-(4-methylpiperazin-1-yl)ethyl]-2-pyridin-4-yl-1Hindol-3-yl}methylene)-3-oxo-2,3-dihydro-1-benzofuran-5-yl]-3-methylurea], the values for the IC50 at PI3K-alpha and against PI3K-gamma were 3.67 nM and 1020 nM, respectively.

On to `CNC(=O)Nc1ccc2c(c1)C(=O)/C(=C/c1c(-c3nc(C(C)C)no3)[nH]c3ccc(OC)cc13)O2` [Compound 591, 1-[(2Z)-2-{[2-(3-isopropyl-1,2,4-oxadiazol-5-yl)-5-methoxy-1H-indol-3-yl]methylene}-3-oxo-2,3-dihydro-1-benzofuran-5-yl]-3-methylurea], for which the IC50 on PI3K-alpha stood at 8 nM; against PI3K-gamma it was 9500 nM.

As to `CNC(=O)Nc1ccc2c(c1)C(=O)/C(=C/c1c(-c3nc(C4CC4)no3)[nH]c3ccc(OC)cc13)O2` [Compound 592, 1-[(2Z)-2-{[2-(3-cyclopropyl-1,2,4-oxadiazol-5-yl)-5-methoxy-1H-indol-3-yl]methylene}-3-oxo-2,3-dihydro-1-benzofuran-5-yl]-3-methylurea], the IC50 on PI3K-alpha amounted to 5.5 nM; at PI3K-gamma it was 8900 nM.

Take `CCCc1noc(-c2[nH]c3ccc(OC)cc3c2/C=C2\Oc3ccc(NC(=O)NC)cc3C2=O)n1` [Compound 593, 1-[(2Z)-2-{[5-methoxy-2-(3-propyl-1,2,4-oxadiazol-5-yl)-1H-indol-3-yl]methylene}-3-oxo-2,3-dihydro-1-benzofuran-5-yl]-3-methylurea]: the results for the IC50 at PI3K-alpha and against PI3K-gamma were 12.5 nM and 776 nM, respectively.

Regarding `CNC(=O)Nc1ccc2c(c1)C(=O)/C(=C/c1c[nH]c3c(/C=C/CN4CCN(C)CC4)cc(OC)cc13)O2` [Compound 594, 1-[(2Z)-2-({5-methoxy-7-[(1E)-3-(4-methylpiperazin-1-yl)prop-1-en-1-yl]-1Hindol-3-yl}methylene)-3-oxo-2,3-dihydro-1-benzofuran-5-yl]-3-methylurea], the IC50 at PI3K-alpha is 73.5 nM; against PI3K-gamma, 2200 nM.
